Assay results: PubChem BioAssay AID449762 (Southern Research Specialized Biocontainment Screening …, 2010)
Records with an inconclusive call do not appear.

Test system: M. tuberculosis H37Rv growth inhibition, 7H9 media
Test: M. tuberculosis growth inhibition, HTS (AID 449762);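 also: bacterial growth assessed after seven days of incubation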
Details: for IC90: measured here: IC90 growth inhibition

SMILES	IC50 [µM]	IC90 [µM]
COc1ccc(C[C@H](N)C(=O)N[C@H]2[C@@H](O)[C@H](n3cnc4c(N(C)C)ncnc43)O[C@@H]2CO)cc1	3.14	3.54
O=C(Nc1cccc(-c2ccc(N3CCCCC3)nn2)c1)c1ccc(Br)o1	16.5	42.4
C/C(=N/Nc1cc(-c2ccccc2)nc(-c2ccccc2)n1)c1ccc(O)cc1	9.45	13.8
COC(=O)c1ccc(N/C(C)=C/C(=O)c2ccc(C)o2)cc1	97.4	> 100
O=c1[nH]c2ccccc2c2oc(CCl)nc12	1.14	19.2
C/C(=N\Nc1ccc(S(=O)(=O)N2CCCCC2)cn1)c1cccc(Br)c1	32.7	> 100
COC(=O)c1cccc(C#CC(NP(=O)(c2ccccc2)c2ccccc2)c2ccccc2)c1 (stereo not drawn)		> 100
COc1ccc(C(=O)/C=C/Sc2nc3ccccc3o2)cc1	37.8	> 100
COc1ccc(CCNc2nc(N3CCCCC3)nc(N3CCCCC3)n2)cc1OC	17.3	22.5
COc1ccccc1NC(=O)C(C)OC(=O)/C=C/c1ccc2ccccc2n1 (stereo not drawn)	3.82	11.4
Cc1ccccc1N1CCN(c2ncnc3c2cnn3Cc2ccc(Cl)cc2)CC1	5.12	8.72
O=C(Cc1ccc(Nc2nc3ccc(Br)cc3[nH]2)cc1)NCCc1cccs1	23.5	31.2
CCCCNC(=O)Nc1nnc(-c2ccc(OCC)cc2)o1		> 100
N#C/C(=C/c1ccc(Sc2nc3ccccc3[nH]2)o1)c1cccc(Br)c1	77.6	> 100
Cc1cccc(NC(=O)c2nc[nH]c2C(=O)N[C@H](C)c2ccccc2)c1	3.63	> 100
O=C(OCn1nnc2ccccc2c1=O)C1CCCCC1	3.56	7.16
COc1cc(OC)nc(-n2ncc(Br)c(Br)c2=O)n1	4.28	60.7
Cc1ccc(C(=O)Nc2cccc(C(F)(F)F)c2)cc1Nc1ncnc2nc[nH]c12	50	> 100
O=C(NCCc1ccc(Cl)cc1)c1ccc(CS(=O)Cc2ccc(Cl)cc2)o1 (stereo not drawn)	37.7	49.1
COc1ccc(-c2csc3nc(-c4ccccc4OC)oc(=O)c23)cc1	< 0.2	24.1
COc1ccccc1C1=NOC(COC(=O)c2ccc([N+](=O)[O-])cc2)C1 (stereo not drawn)	34.4	> 100
Cn1c(/C=N/Nc2nc3ccccc3[nH]2)nc2ccccc21	40.1	61.4

SMILES	IC50 [µM]	IC90 [µM]
COc1ccccc1OCCN1CSC(=S)N(C)C1	6.34	15.3
O=C(c1ccccc1)C1CN(Cc2ccccc2)CCC1(O)c1ccccc1 (stereo not drawn)	9.4	14.6
CCN1CCN(Cc2ccc(NC(=O)c3ccc(C)c(/C=C/c4cnc(Nc5cc(N6CCNCC6)nc(C)n5)cn4)c3)cc2C(F)(F)F)CC1	35.1	57.9
O=C(C=C=Nc1ccccc1)C(=O)N=C=Cc1ccccc1	5.31	13.1
CC1Cc2cc(-c3csc(NC(=O)Cc4cccs4)n3)ccc2N1S(C)(=O)=O (stereo not drawn)	10.6	38
CCC(C)N1CCC2(CC1)N=c1c(c3c4c5c(C)c(O)c3c(O)c1=NC(=O)C(C)=CC=C[C@H](C)[C@H](O)[C@@H](C)[C@@H](O)[C@@H](C)[C@H](OC(C)=O)[C@H](C)[C@@H](OC)C=CO[C@@](C)(O5)C4=O)N2 (stereo partly drawn)	< 0.2	< 0.2
Oc1c(C(c2ccccc2Cl)N2CCCC2)ccc2cccnc12 (stereo not drawn)	14.1	31.1
CCOC(=O)CSc1nnc(-c2c[nH]c3ccccc23)o1	0.59	> 100
CCN(CC)C(=O)[C@H]1CC(CC(=O)NCC23CC4CC(CC(C4)C2)C3)C(=O)N2CCc3c([nH]c4ccccc34)[C@]12C (stereo partly drawn)	18.3	24.8
CC(=O)n1cc(/C=C2/N=C(c3ccccc3)OC2=O)c2ccccc21	30.7	75.5
CCCCS/C(N)=N/N=C/c1cc(C)ccc1O	12.3	13.9
COc1ccc(C(CC(=O)c2ccccc2)S(=O)(=O)c2ccc(C)cc2)cc1 (stereo not drawn)	20.2	29.4
O=C(Nc1nnc(-c2ccccc2)o1)c1cc(-c2cccs2)nc2ccccc12	0.89	2.25
CN(C(=O)COC(=O)c1sc2ccccc2c1Cl)C1CCCCC1	4.8	15
CCN1CCN(Cc2ccc(NC(=O)c3cc(NC(=O)c4cncc(-c5cccs5)c4)cc(OC)c3)cc2C(F)(F)F)CC1	10.2	14.6
O=S(=O)(c1ccc(Cl)cc1)c1snnc1-c1ccccc1	6.27	51.8
O=C(OCc1ccccc1)/C(=C(\O)c1ccccc1Br)c1ccc(-c2ccccc2)cn1	23.9	45.8
Cc1cccc(CSc2nc3c(c(-c4cccs4)c2C#N)CN(C)CC3)c1		> 100
CCc1ccc(NC(=S)/N=C(\N)Nc2nc(C)c3cc(CC)ccc3n2)cc1	7.31	40
Cc1cccc(C)c1Nc1c(-c2ccccn2)nc2ccccn12	2.18	5.73
CN(CCCC1CCCC1)C(=O)CCc1nnc(-c2ccccc2)o1	7.31	20.1
C/C(=C1/C(=O)N(c2ccc([N+](=O)[O-])cc2)N=C1c1ccccc1)N(C)C	21.8	31.4

SMILES	IC50 [µM]	IC90 [µM]
Cc1ccc2nc(-c3cccc(Br)c3)cc(C(=O)NC3=NCCS3)c2c1	14	28.9
CCCn1nc(C(=O)NNC(=O)c2ccc(C)c(C)c2)c2ccccc2c1=O	11.2	15.9
Cc1ccc(Nc2nc(CSc3nnc(-c4cccs4)o3)cs2)cc1	40.7	> 100
Cc1ccccc1C1C(C#N)=C2N=C(N)c3c(sc4c3CCCCC4)N2C2=C1C(=O)CC(C)(C)C2 (stereo not drawn)		> 100
O=[N+]([O-])c1cc(-c2ccc(/C=N\n3cnnc3)o2)cc([N+](=O)[O-])c1	0.65	1.86
CN(CCCNC(=O)c1cc2c(Cl)nc3ccccc3c2s1)Cc1ccccc1	41.1	61
Cc1ccc(Cl)cc1N1CCN(C(=O)C2CCC(=O)N(C3CCCCCC3)C2)CC1 (stereo not drawn)	19.3	28.6
O=C(Nc1ccccc1)C1=C[C@@H](C2CCCCC2)C[C@@H](OCc2ccc(CO)cc2)O1	45	50.2
Cc1ccc(-c2csc3nc4c5ccccc5c(NCCCN5CCOCC5)nn4c(=O)c23)cc1	24.7	27.7
O=C(NCCCN1CCOCC1)c1cc2c([nH]c3ccccc32)c(-c2cccc(Br)c2)n1	10.4	13.4
CCCc1cnc(NCCNCC(O)COc2ccc(Cl)c(Cl)c2)nc1 (stereo not drawn)	17.1	22.1
O=c1c2cc(-c3ccccc3)sc2ncn1/N=C/c1ccco1	82.7	> 100
FC(F)(F)c1ccc(Nc2nnnc3ccccc23)cc1	90.2	99.6
N#C/C(=C1\CCCN1)c1nc(-c2ccccc2)cs1		> 100
CN1CCN(C2Cc3ccccc3Sc3cc(C(F)(F)F)ccc32)CC1 (stereo not drawn)	13.5	15.6
c1ccc(-c2ccccc2OCCCCn2ccnc2)cc1	12.8	25.6
C/C(CCc1ccc2c(c1)OCO2)=N\NC(=S)NC(C)C	35.7	48.4
c1ccc2c(c1)CCN(c1nc3cc4c(cc3s1)OCCO4)C2	7.45	16.9
Cc1cc(C(=O)COC(=O)C2=COCCO2)c(C)n1-c1cccc(F)c1	4.83	> 100
CC1CCCN(Cc2c(O)ccc3c(=O)c(-c4nc5ccccc5s4)c(N)oc23)C1 (stereo not drawn)	9.7	12.7
CCN(Cc1ccccc1)c1ccc(/C=N/N=C(N)N)cc1	17.1	30.1
Cc1nn(-c2nc3ccccc3[nH]2)c(N)c1-c1ccc(Cl)cc1	0.21	2.6

SMILES	IC50 [µM]	IC90 [µM]
O=C(c1cc2ccccc2o1)N1CCN(S(=O)(=O)c2ccc(Cl)s2)CC1	4.01	13.1
CCOC(=O)Cn1c(C)c(Br)c(=O)c2cccc(C)c21	7.53	22.7
N#Cc1cccc(NC(=O)N2CCC(c3nc4c(nnn4Cc4cccc(Cl)c4)c(=O)[nH]3)CC2)c1	12.4	13.5
Cc1ccc(NCc2ccc(O)c3ncccc23)cc1C	56	> 100
CCCCCOc1ccc(NC2=CC(=O)CCC2)cc1	52.4	> 100
Oc1ccc(C[C@H]2CNCCN2CCCCC2CCCCC2)cc1	31.5	59.2
COc1cc2c(C(=O)N3CCN(c4cccc(Cl)c4)CC3)cn(CC(C)C)c(=O)c2cc1OC	47.7	53.9
c1nc2n(n1)C1=C(CCCC1)C1(CCCCC1)N2	10.2	30
CCOC(=O)c1sc(C)c2c(=O)n(CC(=O)c3ccc(Br)cc3)nnc12	74.3	> 100
O=C(OCC(=O)N1CCCCC1)c1cc2ccccc2cc1O	5	9.61
CNc1ccccc1C(=O)OC(C)C(=O)Nc1ccc(Cl)cn1 (stereo not drawn)	28.2	51.3
CCOC(=O)c1nnc(-c2ccccc2)nc1Sc1ccccc1Cl	20.7	49.2
CC(C)(C)C1CCc2sc(-c3nnc(CCl)o3)cc2C1 (stereo not drawn)	< 0.2	5.54
COc1ccccc1/C=C/C1=NC(=C\C=C/c2ccccc2)/C(=O)O1		> 100
O=C(NC1CCN(Cc2ccccc2)CC1)c1cccc(S(=O)(=O)Nc2ccc(SC(F)F)cc2)c1	15.5	21.9
CN(C)c1ccc(CNC2C3CC4CC(C3)CC2C4)cc1 (stereo not drawn)	11.8	13
CCCCCCCNC1=CC(=O)CC(c2ccccc2)C1 (stereo not drawn)	41.6	53.9
Cc1ccccc1Cn1cc(NC(=O)c2noc(C(C)C)c2[N+](=O)[O-])cn1	5.11	8.72
O=S1(=O)CCC(N=Cc2ccc(-c3ccc(Cl)cc3)o2)C1 (stereo not drawn)	54.8	> 100
Cc1cc(Nc2ccccc2)c2c([N+](=O)[O-])ccc(C)c2n1	94.4	> 100
C=C1C(=O)O[C@@H]2C[C@@H](C)[C@@H]3C4OC4C(=O)[C@@]3(C)[C@@H](O)[C@H]12 (stereo partly drawn)	3.64	9.39
